Reference: patent publication US20260042754A1, “Substituted Bicyclic Heteroaryl Sulfonamide Derivatives for the Treatment of Cancer” (NODUS ONCOLOGY LIMITED, priority 2022, published 2026)

Tests used:
NCI-H1650 = assay: Modified cell proliferation assay (CellTiter-Glo), NCI-H1650; type: cell-based; details: Homo sapiens, NCI-H1650; modified protocol, 384-well, 300 cells per well, 120 h; highest concentration tested 30000 nM; read-out: NCI-H1650 GI50 (high PARG dependency)
Protocol: The cell proliferation assay protocol was modified and used for RMUG-S for Examples 12-44, and subsequently used to test Examples 1-44 in the NCI-H1650 cell line.
NCI-H1650 (ATCC, #CRL-5883) or RMUG-S were seeded on day 1 at 300 cells per well in a 384-well plate (Greiner, #781080) that assure assay linearity and optimal signal intensity in 25 μL of RPMI1640 media (Pan Biotech, #P04-22100) containing 10% FCS (Capricorn, #FBS-11A; Lot. CP22-5141) and 1% Glutamine (Pan Biotech, #P04-80100). After incubation for 24 h in humidified chambers at 37° C./5% CO2, compounds/DMSO were dispensed at different concentrations using an Echo 520 (Beckman Coulter). Cells were further incubated for 120 h at 37° C. and 5% CO2. Cells treated with the compound vehicle DMSO were used as negative controls and cells treated with 10 μM Staurosporine (LC Laboratories, #S-9300) served as positive controls.
At day 6 the CellTiter Glo Reagent was prepared according to the instructions of the kit (Promega Inc.): Reagent was mixed 1:1 with cell culture medium. Thereon, mixture and assay plates were equilibrated at room temperature for 20 min. Equal volumes of the reagent-medium-mixture were added to the volume of culture medium present in each well. The plates were mixed at […] for 2 minutes on an orbital shaker (Timix5, Edmund Buehler GmbH). The microplates were then incubated at room temperature for 10 minutes for stabilization of the luminescent signal. Following incubation, the luminescence was recorded on a Victor X5 microplate reader (Perkin Elmer) using a 200 ms integration time. The data was then analyzed with Excel using the XLFIT Plugin (dose response Fit 205) for determination of the concentration necessary for half-maximal inhibition (i.e. the inflection point of the fitted curve).
As quality control the Z′-factor was calculated from 16 positive and negative control values. Only assay results showing a Z′-factor≥0.5 were used for further analysis.

[1] = target: human PARG (PARG-NanoLuc fusion in HEK293T cells) (Homo sapiens (Human), UniProt Q86W56); assay: PARG NanoBRET-based cellular target engagement assay; type: cell-based; details: HEK293T cells transfected with PARG-NanoLuc, NanoBRET probe 0.89 μM, 2 hours; read-out: PARG TE IC50
Sequence of human PARG (PARG-NanoLuc fusion in HEK293T cells) (Q86W56 whole entry, the tested form may be a part): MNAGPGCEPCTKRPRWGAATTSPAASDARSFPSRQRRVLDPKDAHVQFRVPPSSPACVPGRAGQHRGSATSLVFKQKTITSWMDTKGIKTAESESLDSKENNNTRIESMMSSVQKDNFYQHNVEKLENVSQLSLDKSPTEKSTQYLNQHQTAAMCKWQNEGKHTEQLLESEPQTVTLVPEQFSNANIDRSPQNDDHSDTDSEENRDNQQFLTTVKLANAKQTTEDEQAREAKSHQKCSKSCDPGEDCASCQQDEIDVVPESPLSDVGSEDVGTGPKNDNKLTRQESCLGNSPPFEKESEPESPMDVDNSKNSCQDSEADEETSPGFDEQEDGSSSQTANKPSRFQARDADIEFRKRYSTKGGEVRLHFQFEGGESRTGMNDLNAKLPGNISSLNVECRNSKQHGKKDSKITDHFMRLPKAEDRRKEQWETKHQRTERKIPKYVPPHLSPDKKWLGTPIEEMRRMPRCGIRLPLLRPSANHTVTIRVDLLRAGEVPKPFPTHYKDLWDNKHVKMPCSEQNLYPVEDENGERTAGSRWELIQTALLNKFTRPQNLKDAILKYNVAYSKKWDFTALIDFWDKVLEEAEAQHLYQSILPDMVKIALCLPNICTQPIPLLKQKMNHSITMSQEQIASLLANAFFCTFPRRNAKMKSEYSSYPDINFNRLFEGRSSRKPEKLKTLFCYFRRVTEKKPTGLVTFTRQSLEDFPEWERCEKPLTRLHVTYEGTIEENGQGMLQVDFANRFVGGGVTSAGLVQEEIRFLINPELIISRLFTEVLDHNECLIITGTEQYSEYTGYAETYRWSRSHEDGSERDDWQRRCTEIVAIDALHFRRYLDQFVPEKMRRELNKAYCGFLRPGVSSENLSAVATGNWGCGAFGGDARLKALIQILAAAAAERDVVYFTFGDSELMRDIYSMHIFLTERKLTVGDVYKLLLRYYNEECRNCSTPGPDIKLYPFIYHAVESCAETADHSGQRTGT
Protocol: PARG Nano-luciferase construct: The PARG-NanoLuc® fusion vector was generated by Promega, by inserting the full length human PARG cDNA sequence encoding the 976 amino acid protein (Gene ID: 8505, UniProt: Q86W56) into the pNLF1-C [CMV/Hygro] vector (C-terminal fusions with NanoLuc® enzyme).
PARG target engagement tracer synthesis: The NanoBRET tracer for PARG was prepared following a previously reported general tracer synthesis procedure.
PARG Probe Displacement Assay Using NanoBRET: HEK293T (DSMZ #ACC 635) cells transiently transfected with the PARG-NanoLuc fusion construct were resuspended in phenol red-free OptiMEM (Gibco #11058-021) to a concentration of 2.4×10^5 cells/mL. 9 μL per well were then added to a white 384-well low volume microplate (Greiner #784080) and incubated for 24 hours under standard growth conditions.
Then compound was dispensed into each well using an Echo dispenser (BeckmanCoulter) to yield the pre-specified final concentration of the range of concentrations to be tested (typically 8-point serial concentrations ranging from either from 0.01 to 10 μM, or from 0.001 to 1 μM, or from 0.0001 to 0.1 μM), and being volume-corrected with 100% DMSO (0.5% final DMSO concentration in reaction mixtures).
After mixing and an incubation at room temperature for 15 min 1 μl of the NanoBRET probe (at 0.89 μM final concentration) was added to the microplate using a multichannel pipette. The plate was mixed and incubated in a 5% CO2 environment at 37° C. for 2 hours, and then 5 μL per well of a solution consisting of a 1:31.25 dilution of Nano-Glo substrate (Promega) and a 1:500 dilution of NanoLuc extracellular inhibitor (Promega) in phenol red-free OptiMEM was added to each well followed by another mixing step. Filtered luminescence was measured on an EnVision plate reader (PerkinElmer) equipped with a 460 nm filter (donor) and a 645 nm filter (acceptor). BRET ratios were plotted as concentration-response curves fitted to a sigmoidal 4-parameter logistic model to calculate IC50 values (Scigilian Analyze).

[2] = target: Recombinant His-tagged human PARG protein (Homo sapiens (Human), UniProt Q86W56); assay: PARG enzymatic assay (TFMU-ADPr fluorescence); type: biochemical; details: 1 nM enzyme, 200 μM TFMU-ADPr, read after 30 minutes
Sequence of Recombinant His-tagged human PARG protein (Q86W56 whole entry): as the sequence (Q86W56 whole entry, the tested form may be a part) above
Protocol: Inhibition of PARG enzymatic activity by compounds was determined as follows: Recombinant His-tagged human PARG protein expressed in Sf21 insect cells (Adipogen AG, #40T-0022) was aliquoted and stored at −80° C. until use. The artificial enzyme substrate 4-(trifluoromethyl)umbelliferone (TFMU)-ADPr was prepared essentially as described (Drown B S et al, Cell Chemical Biology 2018) and stored at −20° C. as 10 mM stock solutions in DMSO (dimethyl sulfoxide) until use. For reactions, typical final concentration of the enzyme was 1 nM and of the TFMU-ADPr 200 μM. Reactions were carried out in black 384-well low volume round bottom assay plates (Corning, #4514) in a final volume of 10 μL. To this end, PARG was diluted to 1.67 nM in reaction buffer (50 mM K2HPO4, 50 mM KCl, 10 mM β-mercaptoethanol, pH 7.4) and 6 μL were dispensed per assay well using a multichannel pipette. Then compound was dispensed into each well using an Echo dispenser (BeckmanCoulter) to yield the pre-specified final concentration of the range of concentrations to be tested (typically 8-point serial concentrations ranging from either from 0.01 to 10 μM, or from 0.001 to 1 μM, or from 0.0001 to 0.1 μM), and being volume-corrected with 100% DMSO (0.5% final DMSO concentration in reaction mixtures). Plates were mixed, and after 15 minutes 4 μL TFMU-ADPr was added into each well using a multichannel pipette followed by brief mixing. Fluorescence intensity signals were then measured after 30 minutes on an EnVision microplate reader (PerkinElmer) using 380/10 nm and 535/25 nm filters for the excitation and emission, respectively (gain: 150). The assay window was set using DMSO control (top) and a control containing no PARG enzyme (bottom). Delta values were plotted as concentration-response curves fitted to a sigmoidal 4-parameter logistic model to calculate IC50 values (Scigilian Analyze).

Row | Compound | GI50 (NCI-H1650) [nM] | IC50 [1] [nM] | IC50 [2] [nM]
1 | CO/N=c1\[nH]c2c(N3CCN(C(=O)N(C)CC(F)(F)F)[C@H](C)C3)cc(S(=O)(=O)NC3(C)CC3)cc2c(=O)n1Cc1cnn(C)c1 [Example 37, (R,E)-4-(2-(methoxyimino)-3-((1-methyl-1H-pyrazol-4-yl)methyl)-6-(N-(1-methylcyclopropyl)sulfamoyl)-4-oxo-1,2,3,4-tetrahydroquinazolin-8-yl)-N,2-dimethyl-N-(2,2,2-trifluoroethyl)piperazine-1-carboxamide] | < 500 | < 30 | < 30
2 | CO/N=c1\[nH]c2c(N3CCN(C(=O)CC(F)(F)F)[C@H](C)C3)cc(S(=O)(=O)NC3(C)CC3)cc2c(=O)n1Cc1cnn(C)c1 [Example 31, (R,E)-2-(methoxyimino)-3-((1-methyl-1H-pyrazol-4-yl)methyl)-8-(3-methyl-4-(3,3,3-trifluoropropanoyl)piperazin-1-yl)-N-(1-methylcyclopropyl)-4-oxo-1,2,3,4-tetrahydroquinazoline-6-sulfonamide] | < 500 | < 30 | < 30
3 | CON=c1[nH]c2ccc(S(=O)(=O)NC3(C#N)CC3)cc2c(=O)n1Cc1cnn(C)c1 [Example 9, N-(1-cyanocyclopropyl)-2-methoxyimino-3-[(1-methylpyrazol-4-yl)methyl]-4-oxo-1H-quinazoline-6-sulfonamide] | > 2000 | 30 to 99 | < 30
4 | CO/N=c1\[nH]c2c(-c3ccc(C(=O)N(C)C)nc3)cc(S(=O)(=O)NC3(C)CC3)cc2c(=O)n1Cc1cnn(C)c1 [Example 19, (E)-5-(2-(methoxyimino)-3-((1-methyl-1H-pyrazol-4-yl)methyl)-6-(N-(1-methylcyclopropyl)sulfamoyl)-4-oxo-1,2,3,4-tetrahydroquinazolin-8-yl)-N,N-dimethylpicolinamide] | 500 to 2000 | < 30 | < 30
5 | CO/N=c1\[nH]c2c(-c3ccc(C(=O)N(C)C)cn3)cc(S(=O)(=O)NC3(C)CC3)cc2c(=O)n1Cc1cnn(C)c1 [Example 20, (E)-6-(2-(methoxyimino)-3-((1-methyl-1H-pyrazol-4-yl)methyl)-6-(N-(1-methylcyclopropyl)sulfamoyl)-4-oxo-1,2,3,4-tetrahydroquinazolin-8-yl)-N,N-dimethylnicotinamide] | 500 to 2000 | < 30 | < 30
6 | CCO/N=c1\[nH]c2ccc(S(=O)(=O)NC3(C)CC3)cc2c(=O)n1Cc1cnn(C)c1 [Example 10, 2-ethoxyimino-N-(1-methylcyclopropyl)-3-[(1-methylpyrazol-4-yl)methyl]-4-oxo-1H-quinazoline-6-sulfonamide] | 500 to 2000 | 30 to 99 | < 30
7 | CO/N=c1\[nH]c2c(-c3ccc(C4(O)CCC4=O)cc3)cc(S(=O)(=O)NC3(C)CC3)cc2c(=O)n1Cc1cnn(C)c1 (stereo not shown) [Example 22, (E)-8-(4-(1-hydroxy-2-oxocyclobutyl)phenyl)-2-(methoxyimino)-3-((1-methyl-1H-pyrazol-4-yl)methyl)-N-(1-methylcyclopropyl)-4-oxo-1,2,3,4-tetrahydroquinazoline-6-sulfonamide] | – | 30 to 99 | < 30
8 | CO/N=c1\[nH]c2c(N3CCN(C(=O)C(F)(F)F)[C@H](C)C3)cc(S(=O)(=O)NC3(C)CC3)cc2c(=O)n1Cc1cnn(C)c1 [Example 42, (R,E)-2-(methoxyimino)-3-((1-methyl-1H-pyrazol-4-yl)methyl)-8-(3-methyl-4-(2,2,2-trifluoroacetyl)piperazin-1-yl)-N-(1-methylcyclopropyl)-4-oxo-1,2,3,4-tetrahydroquinazoline-6-sulfonamide] | – | < 30 | < 30
9 | CC(C)O/N=c1\[nH]c2ccc(S(=O)(=O)NC3(C)CC3)cc2c(=O)n1Cc1cnn(C)c1 [Example 11, 2-isopropoxyimino-N-(1-methylcyclopropyl)-3-[(1-methylpyrazol-4-yl)methyl]-4-oxo-1H-quinazoline-6-sulfonamide] | – | 30 to 99 | < 30
10 | CO/N=c1\[nH]c2c(N3CCN(C(=O)C4(C(F)(F)F)CC4)[C@H](C)C3)cc(S(=O)(=O)NC3(C)CC3)cc2c(=O)n1Cc1cnn(C)c1 [Example 32, (R,E)-2-(methoxyimino)-3-((1-methyl-1H-pyrazol-4-yl)methyl)-8-(3-methyl-4-(1-(trifluoromethyl)cyclopropane-1-carbonyl)piperazin-1-yl)-N-(1-methylcyclopropyl)-4-oxo-1,2,3,4-tetrahydroquinazoline-6-sulfonamide] | < 500 | – | –
11 | CO/N=c1\[nH]c2c(N3CCN(C(=O)N(C)C4CC4)[C@H](C)C3)cc(S(=O)(=O)NC3(C)CC3)cc2c(=O)n1Cc1cnn(C)c1 (single isomer, unassigned) [Example 44] | – | < 30 | < 30
12 | CO/N=c1\[nH]c2ccc(S(=O)(=O)NC3(C)CC3)cc2c(=O)n1Cc1cnn(C(F)(F)F)c1 [Example 6, 2-methoxyimino-N-(1-methylcyclopropyl)-4-oxo-3-[[1-(trifluoromethyl)pyrazol-4-yl]methyl]-1H-quinazoline-6-sulfonamide] | – | 100 to 1000 | 100 to 1000
13 | CO/N=c1\[nH]c2c(N3CCN(C(=O)C(F)(F)C4(O)CCC4)[C@H](C)C3)cc(S(=O)(=O)NC3(C)CC3)cc2c(=O)n1Cc1cnn(C)c1 (single isomer, unassigned) [Example 43] | – | < 30 | < 30
